# Assay results: patent US9447157B2, “Nitration shielding peptides and methods of use thereof” (Augusta University Research Institute, Inc., priority 2013, dated 2016)
# System: Pulmonary artery smooth muscle cells (PASMC)
# Assay: PASMC cellular metabolism (alamarBlue assay)
# Format: cell-based, lamb
# Conditions: SIN-1 500 μM 48 h
# Description: This was determined via the alamarBlue assay (AbD Serotec, Oxford, UK). The assay is based on the reducing ability of metabolically active cells to convert the active reagent, resazurin, into a fluorescent and colorimetric indicator, resorufin. When added to cell cultures, the oxidized, resazurin enters the cytosol and is converted to the reduced, resorufin in the mitochondria by accepting electrons from NADH, NADPH, FADH2, FMNH2, as well as from the cytochromes. The non-toxic and cell permeable nature of alamarBlue permits the long-term exposure of cells. PASMC were grown on a 10 cm dish to 75% confluence, transfected with WT-PKG-1α or Y247F-PKG-1α cDNA, and incubated at 37° C. for 20 h. The cells were trypsinized and seeded onto a 24-well plate at a density of 20,000 cells per well and grown for an additional 4 h in serum and phenol free DMEM growth medium containing 1% FBS and antibiotics. The cells were then treated with or without SIN-1 (500 μM, 48 h) in the presence of 10% well volume of alamarBlue dye. The color change of the dye was determined at an excitation wavelength of 560 nm and an emission wavelength of 590 nm in a Fluoroskan Ascent plate reader. […] Cellular metabolism was expressed as follows: […]
substance,measurement,value
3-morpholinosydnonimine N-ethylcarbamide [SIN-1],"Metabolism, WT-PKG-1α transfected PASMC",stimulated
